Measurements reported in PubChem BioAssay (NCI).
“And” between values parts separate entries of the source, which are not always exact repeats. Equal entries are not always repeated.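 Cultured in 96-well plates, cells were exposed to test compound for 48 hours across five concentrations. GI50 marks 50% less growth. Definition used: TGI = concentration required for complete inhibition of growth.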 Where a SMILES comes first, the peptide text is derived from it. [ ]: non-standard residue; d: D form. 2Nal = N[CH](Cc1ccc2ccccc2c1)C(=O)O

Tests used:
Test in all cases: NCI tumour cell line growth inhibition, 48 h
[1] = system: DLD-1 colon
[2] = system: HOP-18 NSCLC
[3] = system: KM20L2 colon
[4] = system: LXFL 529 NSCLC
[5] = system: M19-MEL melanoma
[6] = system: MOLT-4 leukemia
[7] = system: SF-539 CNS
[8] = system: SN12C renal
[9] = system: HOP-62 NSCLC
[10] = system: DU-145 prostate

| Structure (SMILES) | TGI [1] [µM] | TGI [2] [µM] | TGI [3] [µM] | TGI [4] [µM] | TGI [5] | TGI [6] | TGI [7] | TGI [8] | TGI [9] | GI50 [1] [µM] | GI50 [2] [µM] | GI50 [9] [µM] | GI50 [3] [µM] | GI50 [4] [µM] | GI50 [5] [µM] | GI50 [6] [µM] | GI50 [7] | GI50 [8] [µM] | TGI [10] [µM] | GI50 [10] [µM] |
| --- | --- | --- | --- | --- | --- | --- | --- | --- | --- | --- | --- | --- | --- | --- | --- | --- | --- | --- | --- | --- |
| COc1cc2c(cc1OC)c1c(OC)c(OC)cc3c1c1c2sc(=S)n1CC3 | > 100 | > 100 | > 100 | > 100 | > 100 µM | > 100 µM | > 100 µM | > 100 µM |  |  |  |  |  |  |  |  |  |  |  |  |
| CC1=C2[C@H](c3ccccc3)C3C=CC2(c2ccccc23)N(C(=O)C(c2ccccc2)c2ccccc2)C1=O (some centres not stated) | > 100 | > 100 | > 100 | > 100 | > 100 µM | > 100 µM | > 100 µM | > 100 µM | > 100 µM |  |  |  |  |  |  |  |  |  |  |  |
| CCCCCCCCCOC(=S)NCCCCC | > 100 | > 100 | 59.3 | > 100 | > 100 µM | 42.6 µM | 41.3 µM | 74 µM | 80.9 µM |  |  |  |  |  |  |  |  |  |  |  |
| CCC[CH2][Sn]([CH2]CCC)([O]C(=O)c1cc(F)cc(F)c1)[O][Sn]([CH2]CCC)([CH2]CCC)[O]C(=O)c1cc(F)cc(F)c1 | 2.41 | 3.38 | 10.6 | 0.612 | 2 µM | 2.15 µM | 2.8 µM | 2.76 µM | 14.3 µM | 1.15 | 1.96 | 5 | 3.1 | 0.152 | 0.519 | 0.318 | 1.34 µM | 1.41 |  |  |
| COc1ccc(/C=C\c2cc(OC)c(OC)c(OC)c2)c(O)c1O | > 85.8 | 185 | 76.9 | 12.8 | 17.8 µM and 11.2 µM | 20.8 µM and 3.4 µM | 0.0821 µM and 0.2 µM | 25.9 µM and 28.4 µM | 68.8 µM and 109 µM | 1.52 | 109 | 1.98 | 26.6 |  | 1.42 | 0.456 | < 0.0264 µM and 0.05 µM | 0.296 |  |  |
| O=C(O)CCSC(=O)Nc1ccccc1Cl | > 100 | > 100 | > 100 | > 100 | > 100 µM | > 100 µM | > 100 µM | > 100 µM | > 100 µM |  |  |  |  |  |  |  |  |  |  |  |
| CCOC(=O)C1SC(=Nc2ccc(Cl)cc2C)N=C1C (configuration not stated) | 35.9 | > 100 | 32.1 | 45.6 | 43.7 µM | 47.9 µM | 34.5 µM | 41.4 µM | 43.2 µM |  |  |  |  |  |  |  |  |  |  |  |
| Cn1nc(-c2ccccc2)c(C(=O)/C=C/c2ccc(F)cc2)c(N2CCOCC2)c1=O | > 100 | 37.3 | 31.6 | 30.9 | 39 µM | 48.7 µM | 36.3 µM | > 100 µM |  |  |  |  |  |  |  |  |  |  |  |  |
| COC(=O)C(=O)C(C(=O)C=C(C)C)C(=O)C(=O)Nc1nc2ccc([N+](=O)[O-])cc2s1 (configuration not stated) | > 100 | 54.6 | > 100 | > 100 | > 100 µM | > 100 µM | > 100 µM | > 100 µM | > 100 µM |  |  |  |  |  |  |  |  |  |  |  |
| Cc1ccc(NC(=O)CC/C(CC(=O)C(C)(C)C)=N\Nc2ccc([N+](=O)[O-])cc2[N+](=O)[O-])cc1C | > 100 | > 100 | > 100 | > 100 | > 100 µM | > 100 µM | > 100 µM |  | 61.9 µM |  |  |  |  |  |  |  |  |  |  |  |
| CC(=N)N(C)O | > 100 | > 100 | > 100 | > 100 | > 100 µM | > 100 µM | > 100 µM | > 100 µM | > 100 µM |  |  |  |  |  |  |  |  |  |  |  |
| C/C(CCn1[nH]c(=O)ccc1=O)=N\Nc1ccc([N+](=O)[O-])cc1[N+](=O)[O-] | > 100 | > 100 | > 100 | > 100 | > 100 µM | > 100 µM | > 100 µM | > 100 µM | > 100 µM |  |  |  |  |  |  |  |  |  |  |  |
| C#CCN(N=O)C(=O)NCCCC(NC(C)=O)C(=O)NCc1ccccc1 (configuration not stated) | > 100 | > 100 | > 100 | > 100 | > 100 µM | > 100 µM | > 100 µM | > 100 µM | > 100 µM |  |  |  |  |  |  |  |  |  |  |  |
| COC(=O)C(C(=O)C(=O)Nc1ccc(OC)cc1[N+](=O)[O-])c1nc2cc(C)c(C)cc2[nH]c1=O (configuration not stated) | > 100 | > 100 | > 100 | > 100 | > 100 µM |  | > 100 µM | > 100 µM | > 100 µM |  |  |  |  |  |  |  |  |  |  |  |
| CCOC(=O)NC(=O)c1cn(CCN2CCNCC2)c(=O)[nH]c1=O | > 100 | > 100 |  | > 100 | > 100 µM | > 100 µM | > 100 µM | > 100 µM | > 100 µM |  |  |  |  |  |  |  |  |  |  |  |
| NNC(=O)N/N=C1\C(=O)N(c2nccs2)C(=O)C(=O)C1c1nc2ccccc2s1 (configuration not stated) | > 100 | 88.5 | > 100 | > 100 | > 100 µM |  | > 100 µM | > 100 µM | > 100 µM |  |  |  |  |  |  |  |  |  |  |  |
| Nc1ccc2c(c1)Oc1c(F)c(F)cc3c(=O)c(C(=O)O)cn-2c13 | > 100 | > 100 | > 100 | > 100 | > 100 µM | > 100 µM | > 100 µM | > 100 µM | > 100 µM |  |  |  |  |  |  |  |  |  |  |  |
| CN(O)C(=S)c1ccccc1 | 4.52 | > 100 | > 100 | > 23 | 4.68 µM | 5.11 µM | 63.1 µM | > 55.4 µM | > 90.8 µM |  |  |  |  |  |  |  |  |  | > 100 |  |
| Cc1ccc(/C=C(\C#N)c2ccccc2)cc1 | > 100 | > 100 | > 100 | > 100 | > 100 µM | > 100 µM | > 100 µM | > 100 µM | > 100 µM |  |  |  |  |  |  |  |  |  |  |  |
| Cc1nc(Nc2ccccc2)sc1C(=O)CC(=O)C(=O)NC12CC3CC(CC(C3)C1)C2 | > 100 | > 100 | > 100 | > 100 | > 100 µM | > 100 µM | > 100 µM | > 100 µM | > 100 µM |  |  |  |  |  |  |  |  |  |  |  |
| CC(C)C(NC(=O)C(CCCCN)NC(=O)C(Cc1c[nH]c2ccccc12)NC(=O)C(Cc1ccc(O)cc1)NC(=O)C(CS)NC(=O)C(N)Cc1ccc2ccccc2c1)C(=O)NC(CS)C(=O)NC(C(N)=O)C(C)O (configuration not stated) (H-[2Nal]CYWKVCT-NH2; configuration not given here) | > 100 | > 100 | > 100 | > 100 | > 100 µM | > 100 µM | > 100 µM | > 100 µM | > 100 µM |  |  | > 100 |  |  |  | > 100 | > 100 µM | > 100 | > 12.5 |  |
| CN(C)CCNC(=O)c1cccc2ncc(-c3ccccc3)nc12 | 44.9 | > 64.3 | 38 | 53.7 | 29.5 µM | 9.35 µM | 16.8 µM | 42.2 µM | 34.7 µM |  |  |  |  |  |  |  |  |  |  |  |
| CN(C)CCC1(C2=CCCC2)CC/C(=C\c2ccccc2Cl)C1=O (configuration not stated) | 37.4 | 24.8 | 24.6 | 23.9 | 54.1 µM | 18.3 µM | 28.9 µM | 26.7 µM |  |  |  |  |  |  |  |  |  |  |  |  |
| COc1ccc(C[C@H](N)C(=O)N2C[C@@H](CO)C[C@@H](n3cnc4c(N(C)C)ncnc43)C2)cc1 | > 100 | > 100 | > 100 | > 100 | > 100 µM | > 100 µM | > 100 µM |  | > 100 µM |  |  |  |  |  |  |  |  |  |  |  |
| NC(=Nc1nc(-c2ccccn2)cc2ccccc12)c1ccccn1 | 0.378 | 27.1 | > 100 | > 100 | 0.953 µM | 0.0283 µM | 0.743 µM and 2.08 µM | 22.7 µM | 38.1 µM |  | 0.258 | 0.319 |  |  | 0.199 | 0.00109 | 0.189 µM | 0.131 |  | 0.135 |
